# Results from patent US11369568B2, “Microparticles comprising a sulphur-containing compound” (NOVABIOTICS LIMITED, priority 2016, dated 2022).
# Key:
# P. aeruginosa ATCC27853 = assay: Mouse IN neutropenic lung burden model, Lynovex/Lactose study; type: in vivo, Pseudomonas aeruginosa; settings: CD1 mice, 24 h post-infection
# Protocol: Animals were immunosuppressed/pre-conditioned with either 200 mg/kg or 150 mg/kg cyclophosphamide. Lynovex, chemical name cysteamine, and vehicle were either prepared either as Lynovex and lactose vehicle, or Lynovex and mannitol-based vehicle (both provided by Upperton (Upperton product)). These were prepared for treatment and vehicle-control alone respectively, and in combination. Tobramycin was prepared as an inhalation formulation in lactose. All treatments were administered using a Penn Century device. Phosphate buffered saline (PBS) and Pseudomonas selective agar were required for bacterial tissue burden.
# (§1) Male CD1 mice (n =6 for treatment groups, plus five in pre-treatment group, totalling 35 mice) were used in this study. On day −4, the mice were immunosuppressed/pre-conditioned with 200 mg/kg cyclophosphamide intraperitoneally; and with 150 mg/kg cyclophosphamide intraperitoneally on day-1. An infection was established with P. aeruginosa ATCC27853, with an inoculum of 5×10^6 cfu/ml, administered intranasally in a volume of 40 μl following anaesthetisation with a ketamine/xylazine anaesthetic cocktail for 15 minutes, for the Lynovex prepared in lactose study, and an inoculum of 4×10^6 for the Upperton Lynovex product.
# Treatment. All treatments were administered intratracheally using a Penn Century device.
# Lynovex (cysteamine) was administered at 1.5 mg alone, and in combination with lactose at the following concentrations: Lynovex 0.75 mg+2.25 mg lactose powder, Lynovex 1.5 mg+1.5 mg lactose powder, Lynovex 2.25 mg+0.75 mg, along with a vehicle only control of 3 mg lactose. In addition, Tobramycin at 188 μg/dose was administered, as an inhaled formulation which was mixed with lactose to aid measurement. The treatments were administered approximately 5 minutes after infection.
# The lung tissue burden of each animal, at the clinical end point of 24 h post-infection, was determined. The lungs were homogenised in 2 ml PBS, serially diluted in PBS and plated onto Pseudomonas selective agar before quantification after 24-48 h at 37° C.
# [1] = Mouse weights recorded before and after infection; type: in vivo; settings: infected CD1 mice, Upperton product study (FIG. 6)
# Protocol: as §1
# In a different study, Lynovex was administered at the following doses: 3 mg 5% Lynovex and 3 mg 10% Lynovex. Lynovex in combination with Tobramycin as follows: 3 mg 5% Lynovex+Tobramycin 0.188 mg in 1.5 mg vehicle, 3 mg 10% Lynovex+Tobramycin 0.188 mg in 1.5 mg Vehicle (mannitol-based, provided by Upperton) and a Tobramycin only control (0.188 mg/dose in lactose vehicle). The treatments were administered once approximately 10 minutes after infection.
# Additionally, mouse weights were recorded before and after infection. Mice treated with vehicle, Lynovex monotherapy or Tobramycin monotherapy lost weight following infection. […]
compound,measurement,setting,value
NC[C@H]1O[C@H](O[C@H]2[C@H](O)[C@@H](O[C@H]3O[C@H](CO)[C@@H](O)[C@H](N)[C@H]3O)[C@H](N)C[C@@H]2N)[C@H](N)C[C@@H]1O [Tobramycin],lung burden compared with vehicle-treated mice,"P. aeruginosa ATCC27853; 0.188 mg inhalation formulation, intratracheal, P=0.0097 Kruskal Wallis test",statistically significant reduction in lung burden
same,mouse weight following infection,[1],lost weight
"NCCS [Lynovex, cysteamine]",lung burden compared to vehicle,"P. aeruginosa ATCC27853; 1.5 mg intratracheal, P=0.0072",reduced the lung burden
same,lung burden compared to vehicle,"P. aeruginosa ATCC27853; 2.25 mg intratracheal, P=0.0349",reduced the lung burden
